Where two headings read alike, the source gives them in different places. Blank lines part the entries; values can stand above or below the molecule they belong to.
Legend:
[1] = tested on: Gaa KO mice; test: Cellular dysfunction in Gaa KO mice after 2 administrations; type: in vivo, mouse; conditions: 20 mg/kg ERT every other week, miglustat 10 mg/kg
Method: These key muscle proteins require proper protein trafficking to the muscle cell membrane where they function. […] Alglucosidase alfa (Myozyme®) and ATB200 with and without 10 mg/kg miglustat were evaluated in Gaa KO mice at equivalent ERT dose (20 mg/kg) via an every other week dosing schedule. […] In FIGS. 32A-32D, * indicates statistically significant compared to Myozyme® alone.

[2] = 20 to 40 mg/kg alglucosidase alfa with 4 doses of 80 mg miglustat; 13 Pompe subjects; mean; cited from earlier work
[3] = Apparent plasma half-life in vivo
[4] = Specific activity of ATB200 batches; type: biochemical
Method: Two batches of ATB200 with different sialic acid content were evaluated for pharmacokinetics and efficacy in Gaa KO mice.

[5] = Plasma GAA activity half-life of ATB200 batches after single IV bolus; type: in vivo, mouse; conditions: GAA activity in plasma, Gaa KO mice
[6] = tested on: Gaa KO mice; test: Glycogen reduction by ATB200 batches vs Lumizyme; type: in vivo, mouse; conditions: 2 IV bolus injections every other week, FIGS. 37A-37D
Method: In a related study, IV bolus tail vein injections of ATB200 (Batches A and B) and Lumizyme® were given to Gaa KO mice every other week for a total of 2 injections. Glycogen levels in tissues were measured 14 days after last administration.

[7] = Population PK model of duvoglustat in plasma and tissue; type: in vivo, human; conditions: typical value
Method: Concentration-time profiles of miglustat (200 mg) in Pompe disease patients are compared to those obtained following administration of duvoglustat in normal healthy volunteers (dose range: 50, 100, 250, 600, and 1000 mg). Because concentration-time profiles of miglustat in patients with Pompe disease are similar to those observed following dosing of duvoglustat in healthy subjects over 24 h, PK data collected for duvoglustat in peripheral tissues were used as a surrogate to model exposure to miglustat. A two-compartment model with linear elimination is used to characterize the concentration-time profiles of duvoglustat in tissues.

[8] = target: CIMPR (Homo sapiens, UniProt P11717); test: CIMPR affinity chromatography of rhGAA; type: binding; conditions: fraction of total enzyme by GAA activity
Method: To evaluate the ability of the rhGAA in Myozyme® and Lumizyme®, the only currently approved treatments for Pompe disease, these rhGAA preparations were injected onto a CIMPR column (which binds rhGAA having M6P groups) and subsequently eluted with a free […] gradient. Fractions were collected in 96-well plate and GAA activity assayed by 4MU—α-glucose substrate. The relative amounts of bound and unbound rhGAA were determined based on GAA activity and reported as the fraction of total enzyme.

Sequence of CIMPR (P11717 41-2491, species assumed): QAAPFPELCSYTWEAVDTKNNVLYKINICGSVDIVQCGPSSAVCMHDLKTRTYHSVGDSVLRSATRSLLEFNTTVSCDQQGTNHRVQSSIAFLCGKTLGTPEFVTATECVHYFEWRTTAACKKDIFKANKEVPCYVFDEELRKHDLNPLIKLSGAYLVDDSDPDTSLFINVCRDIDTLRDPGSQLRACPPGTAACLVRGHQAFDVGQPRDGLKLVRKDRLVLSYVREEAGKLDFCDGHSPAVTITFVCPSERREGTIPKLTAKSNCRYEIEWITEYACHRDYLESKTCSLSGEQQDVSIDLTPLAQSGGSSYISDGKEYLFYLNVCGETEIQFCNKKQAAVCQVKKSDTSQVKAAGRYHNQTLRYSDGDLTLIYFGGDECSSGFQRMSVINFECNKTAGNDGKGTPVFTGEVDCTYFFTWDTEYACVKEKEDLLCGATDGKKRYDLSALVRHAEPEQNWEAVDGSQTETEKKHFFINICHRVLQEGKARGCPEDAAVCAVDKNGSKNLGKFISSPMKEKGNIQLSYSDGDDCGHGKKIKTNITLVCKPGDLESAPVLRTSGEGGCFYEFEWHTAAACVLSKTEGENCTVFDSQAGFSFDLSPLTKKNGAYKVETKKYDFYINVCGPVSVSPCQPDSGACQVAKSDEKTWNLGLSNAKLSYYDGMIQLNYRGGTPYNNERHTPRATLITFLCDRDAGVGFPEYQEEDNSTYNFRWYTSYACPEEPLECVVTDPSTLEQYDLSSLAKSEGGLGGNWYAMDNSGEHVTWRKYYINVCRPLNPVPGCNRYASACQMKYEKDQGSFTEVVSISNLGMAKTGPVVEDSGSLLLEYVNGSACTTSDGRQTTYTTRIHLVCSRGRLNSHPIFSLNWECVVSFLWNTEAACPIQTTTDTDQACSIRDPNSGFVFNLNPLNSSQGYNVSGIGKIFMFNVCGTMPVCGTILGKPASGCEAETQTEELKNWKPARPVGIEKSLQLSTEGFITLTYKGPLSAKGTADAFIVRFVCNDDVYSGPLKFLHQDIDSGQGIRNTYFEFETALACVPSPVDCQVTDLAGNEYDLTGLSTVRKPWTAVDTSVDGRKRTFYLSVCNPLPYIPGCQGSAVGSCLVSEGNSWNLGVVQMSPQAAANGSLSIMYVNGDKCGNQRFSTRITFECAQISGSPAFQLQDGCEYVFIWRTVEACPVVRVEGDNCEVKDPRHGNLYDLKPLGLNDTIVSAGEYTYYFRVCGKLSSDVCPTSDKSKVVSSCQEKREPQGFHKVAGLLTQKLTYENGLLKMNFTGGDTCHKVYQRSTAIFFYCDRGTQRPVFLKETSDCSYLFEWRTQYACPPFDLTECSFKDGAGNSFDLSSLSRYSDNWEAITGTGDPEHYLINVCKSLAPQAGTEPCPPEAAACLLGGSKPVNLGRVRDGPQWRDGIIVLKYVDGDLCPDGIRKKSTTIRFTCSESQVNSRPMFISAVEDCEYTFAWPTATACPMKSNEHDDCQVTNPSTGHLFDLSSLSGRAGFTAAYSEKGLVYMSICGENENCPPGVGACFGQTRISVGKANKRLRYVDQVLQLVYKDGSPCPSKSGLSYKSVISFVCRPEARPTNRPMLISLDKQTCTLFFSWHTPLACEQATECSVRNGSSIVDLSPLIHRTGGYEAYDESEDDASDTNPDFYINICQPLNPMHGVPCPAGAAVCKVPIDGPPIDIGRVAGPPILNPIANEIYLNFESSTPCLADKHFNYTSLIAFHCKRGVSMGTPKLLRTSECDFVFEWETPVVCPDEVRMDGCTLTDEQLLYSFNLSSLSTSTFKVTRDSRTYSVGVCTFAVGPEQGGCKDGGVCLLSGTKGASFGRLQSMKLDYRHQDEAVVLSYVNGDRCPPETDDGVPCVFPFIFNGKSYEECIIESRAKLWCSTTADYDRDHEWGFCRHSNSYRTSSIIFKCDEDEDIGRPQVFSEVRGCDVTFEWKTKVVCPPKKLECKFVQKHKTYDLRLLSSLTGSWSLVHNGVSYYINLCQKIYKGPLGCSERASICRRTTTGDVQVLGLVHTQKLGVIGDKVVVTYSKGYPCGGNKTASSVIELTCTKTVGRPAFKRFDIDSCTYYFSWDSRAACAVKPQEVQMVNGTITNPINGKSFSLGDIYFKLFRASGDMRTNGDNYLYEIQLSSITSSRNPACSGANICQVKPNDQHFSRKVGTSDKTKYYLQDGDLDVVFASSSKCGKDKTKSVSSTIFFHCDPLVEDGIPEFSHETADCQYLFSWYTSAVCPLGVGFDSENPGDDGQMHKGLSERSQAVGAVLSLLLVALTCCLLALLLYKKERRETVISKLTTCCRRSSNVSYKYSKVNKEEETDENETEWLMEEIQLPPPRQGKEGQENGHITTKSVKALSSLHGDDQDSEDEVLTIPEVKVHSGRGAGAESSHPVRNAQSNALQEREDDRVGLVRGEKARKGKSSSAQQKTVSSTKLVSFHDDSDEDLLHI

Molecule: [199-arginine,223-histidine]prepro-α-glucosidase (human) [alglucosidase alfa]
autophagy (LC3 II) and lysosomal proliferation (LAMP1) ([1]; FIGS. 29-30): negligible effects towards reducing autophagy
lysosomal glycogen in skeletal muscles ([1]; FIGS. 32A-32D): modestly reduced accumulated lysosomal glycogen in skeletal muscles
increase in acid α-glucosidase activity exposure (AUC), co-administration vs alglucosidase alfa alone [2]: 6.8 fold
apparent plasma half-life t1/2 [3]: ~60 min

Molecule: Batch A: batch of ATB200 with sialic acid 4.0 mol/mol protein and M6P content 3.3 mol/mol protein
Specific activity [4]: 115831 (nmol nmol 4 mu/mg protein/hr
Half-life, Mean ± SEM [5]: 30 ± 1.2 min
glycogen reduction vs Lumizyme® [6]: superior to Lumizyme® in reducing glycogen

Molecule: Batch B: batch of ATB200 with sialic acid 5.4 mol/mol protein and M6P content 2.9 mol/mol protein
Specific activity [4]: 120929 (nmol nmol 4 mu/mg protein/hr
Half-life, Mean ± SEM [5]: 36 ± 1.8 min
glycogen reduction vs Lumizyme® [6]: superior to Lumizyme® in reducing glycogen
glycogen reduction, Batch B vs Batch A ([6]; similar doses): generally more effective in reducing glycogen than Batch A

clearance ([7]; human, plasma and tissue, read-out: Central compartment clearance (CL2) (converted)): 3.42 mL/min
clearance ([7]; human, plasma and tissue, read-out: Systemic clearance (CL) (converted)): 157 mL/min
Vd ([7]; human, plasma and tissue, read-out: Volume of distribution (V)): 44.5 L
Apparent intercompartment clearance (CLQ) [7]: 40.6 L/h
Elimination rate constant (Keo) [7]: 0.378
Intercompartment volume of distribution (VQ) [7]: 61.8 L
Intercompartment volume of distribution within central compartment (VQ2) [7]: 3390 L
Lag time [7]: 0.176 h
Peripheral compartment clearance (CL3) [7]: 88.0 L/h
Peripheral volume of distribution (V2) [7]: 8.68 L
Rate constant of absorption (Ka) [7]: 1.10 h⁻¹
Molecule: OC[C@H]1NC[C@H](O)[C@@H](O)[C@@H]1O [duvoglustat, (2R,3R,4R,5S)-2-(hydroxymethyl)piperidine-3,4,5-triol]

rhGAA activity eluted prior to addition of M6P (did not bind to the CIMPR) [8]: 73%
rhGAA eluted with M6P / containing M6P (CIMPR binding) [8]: 27%
Molecule: Myozyme®: conventional rhGAA product (alglucosidase alfa), Genzyme

From patent US20250381254A1, “Augmented Acid Alpha-Glucosidase For The Treatment Of Pompe Disease” (Amicus Therapeutics, Inc., priority 2015, published 2025)
